{"source": "patent US7157092B1", "about": "“Acyl pseudodipeptides, preparation method and pharmaceutical compositions containing same” (Om Pharma, priority 1998, dated 2007)", "key": {"[1]": {"tested_on": "limulus amoebocyte lysate (LAL)", "assay": "Chromogenic Limulus Amoebocyte Lysate (LAL) endotoxicity test", "format": "biochemical", "settings": "for LAL activity in EU/mg: mean ± standard deviation", "description": "Endotoxicity was determined by a chromogenic Limuls Amoebocyte Lysate test (Chromogenic LAL of Charles River Endosafe, batch # EK412E, Charleston, USA). This test is based on activation by a lipopolysaccharide (LPS) or structurally analogous products, of an enzymatic cascade present in LAL.\nThe enzymatic reaction is conducted at 37° C. and the time-course chromogen formation is measured at 405 nm. In the final stage of this time-course determination assay, the time required to achieve an OD of 0.2 unit is recorded and the endotoxic activity is calculated based on an LPS standard (standard curve).\nResults are expressed in EU (Endotoxin Unit) in relation to a standardized preparation of E. coli lipolysaccharides. For this series of assays, 1 EU corresponds to […] of LPS equivalent.\nIt is mandatory to compare the quantitative assay of the pyrogen content with a given well standardized single series of experiments."}, "[2]": {"assay": "Weight change in rats of the peritoneal carcinoma study", "format": "in vivo, BDIX rats"}, "[3]": {"tested_on": "PROb syngenic tumoral line", "assay": "Treatment of peritoneal carcinoma induced by PROb cells in BDIX rats"}, "UreB 1-569": {"tested_on": "UreB 1-569", "assay": "Nasal immunization with urease B subunit of Heliobacter pylori: serum anti-UreB immunoglobulins (ELISA)", "format": "in vivo, BALB/c mice", "settings": "4 times weekly, 25 μg OM-294-DP alone"}, "ovalbumin": {"tested_on": "ovalbumin", "assay": "Subcutaneous immunization with ovalbumin antigen: specific serum immunoglobulins (ELISA)", "format": "in vivo, BALB/c mice", "settings": "for adjuvant effect on titer of antibodies specifically raised against ovalbumin: IgG1 and IgG2a subclasses, after one or two injections, FIGS. 25-27; for Immunoglobulins specifically raised against ovalbumin of IgG1 subclass / Immunoglobulins specifically raised against ovalbumin of IgG2a subclass / Immunoglobulins specifically raised against ovalbumin of IgM subclass: s.c. injections days 0 and 14, ovalbumin 50 μg, adjuvant 50 μg per injection, ± SD", "description": "To this end, 50 BALB/c mice (females, aged 8 weeks at the beginning of treatment) were divided into 5 groups as follows:\nAntigen: An ovalbumin stock solution is prepared at a concentration of 0.5 mg/ml in 0.9% NaCl.\nThe negative control consists of a 0.9% NaCl solution without antigen.\nAntigen-Adjuvant mixture: Adjuvants are allowed to stand for 20 minutes at 37° C. before vortex treatment for 3 minutes. Then the antigen and (0.9%) NaCl are added as specified in the above Table, and the antigen/adjuvant mixture is vortexed briefly before placing it on a rotary stirrer for 15 minutes at room temperature, then the whole mixture is vortexed for 3 minutes.\nImmunization regimen: Injections are scheduelled on days 0 and 14. The mixtures stated in the preceeding table are administered by subcutaeous route (75 μl on the side, 150 μl in total per animal). Blood sampling is scheduelled on days 14 and 28 (orbital puncture).\nAssay for anti-ovalbumin immunoglobulins: The following serum Immunolglobulins which are specifically directed against ovalbumin are assayed in duplicate by ELISA: IgG1, IgG2a, and IgM. Briefly stated, microtiter plates (NUNC Immunoplate, Roskilde, DK) are incubated (overnight coating) at 40C together with 100 μl ovalbumin (0.5 μg) in bicarbonate buffer pH 9.6). After washing with 0.5% Tween-20 (Merck Hohenbrunn, D), sera are diluted 50-, 200- and 800-fold (diluting solution: phosphate buffered saline (PBS)+1% bovine serum albumin (BSA, Sigma, St. Louis, Mo., USA)+0.02% Tween-20)). 100 μl of each dilute serum sample are added to the wells. Incubation lasts 45 minutes at 37° C.\nAfter a second washing step, IgG1, IgG2a and IgM specifically directed to ovalbumin are incubated for 30 minutes at 37° C. together with 100 μl of anti-IgG1 antibodies (anti-mouse rat antibody)-peroxydase conjugate (Serotec, Oxford, UK), IgG2a-peroxydase conjugate (Pharmingen, San Diego, Calif., USA) and IgM-biotin conjugate (Pharmingen, San Diego, Calif., USA), diluted beforehand in PBS/BSA/Tween buffer (250-, 1000-, 500-fold dilutions, respectively). For IgM, after an extra washing step, a 3rd incubation step is required (30 min. at 37° C.) with a 1:100 dilute solution of streptavidin-peroxydase conjugate (Dako, Glostrup, DK).\nAfter the washing step, 100 μl of a phenylene 1,2-diamine solution (OPD, Merck, Darmstadt, GFR) are added to detect peroxydase-coupled anti-IgG1 and anti-IgG2 secondary antibodies (whereas for IgM, the reagent being used is 3′, 3′, 5′,5′-tetramethylbenzidine (TMB, Sigma, St. Louis, Mo., USA). After a 20 minute incubation period at room temperature, the reaction is stopped by adding 100 μl of 2N H2SO4. Absorbance values are read at 490 nm with a Bio-Rad 3550 model plate reader\nResults of each reading at 490 nm are given in arbitrary units (A.U.) per ml. This is achieved by comparing each sample with a standard prepared from different dilutions of a sample pool collected from group B at day 28 (animals injected with ovalbumin alone). As clearly understood by this term, the sample pool diluted 50-fold is at a concentration of 1000 A.U./ml. Individual results are then corrected for the corresponding dilution factor (50, 200, or 800 times). Only the mean values of each group and the standard deviation (SD) are herein reported."}, "gp63 antigen [4]": {"tested_on": "gp63 antigen", "format": "in vivo, CBA mice"}, "gp63 antigen [5]": {"tested_on": "gp63 antigen", "format": "in vivo, CBA mice", "settings": "2 s.c. injections gp63 2 μg with 2×50 μg OM-294-MP or 200 μg BCG"}, "[6]": {"tested_on": "predendritic cells (DC-6)", "settings": "DC-9 stage"}, "[7]": {"settings": "10 i.v. injections of 1 mg/kg from day 13"}, "[8]": {"settings": "10 i.v. injections of 1 mg/kg from day 13, dissection at D42"}}, "note": "Like-named read-outs stand apart in the source and are kept apart here."}
{"smiles": "CCCCCCCCCCCC(=O)O[C@H](CCCCCCCCCCC)CC(=O)NC(CCOP(=O)(O)O)C(=O)NCCCC(COP(=O)(O)O)NC(=O)C[C@H](O)CCCCCCCCCCC", "note": "(stereo partly drawn) [OM-294-DP, 3-[(R)-3-dodecanoyloxytetradecanoylamino]-4-oxo-5-aza-9-[(R)-3-hydroxytetradecanoylamino]decan-1,10-diol 1, 10-bis(dihydrogenphosphate)]", "values": [{"measurement": "LAL activity in LPS equivalents", "setting": "[1]", "value": 6.2, "unit": "ng eq. LPS/mg"}, {"measurement": "LAL activity in EU/mg", "setting": "[1]", "value": "56 ± 48", "unit": "EU/mg"}, {"measurement": "Weight of rats (mean ± standard deviation)", "setting": "[2]; Day 0", "value": "277 ± 19"}, {"measurement": "Weight of rats (mean ± standard deviation)", "setting": "[2]; Day 13", "value": "310 ± 21"}, {"measurement": "Weight of rats (mean ± standard deviation)", "setting": "[2]; Day 20", "value": "304 ± 23"}, {"measurement": "Weight of rats (mean ± standard deviation)", "setting": "[2]; Day 29", "value": "317 ± 24"}, {"measurement": "Weight of rats (mean ± standard deviation)", "setting": "[2]; Day 41", "value": "327 ± 26"}, {"measurement": "effect on weight change in comparison to NaCl alone", "setting": "[2]; rat, in vivo", "value": "no significant effect on weight change"}, {"measurement": "Volume ascite, mean ± σ", "setting": "[3]; [7]", "value": "8 ± 23", "unit": "ml/rat"}, {"measurement": "Volume ascite, range", "setting": "[3]; [7]", "value": "0–73 ml/rat"}, {"measurement": "animals surviving at day 42 following injection of tumor cells", "setting": "[3]; [7]", "value": 90, "unit": "%"}, {"measurement": "Number of rats suffering from carcinoma belonging to class 0 (no nodules visible)", "setting": "[3]; [8]", "value": 4}, {"measurement": "Number of rats suffering from carcinoma belonging to class 1", "setting": "[3]; [8]", "value": 1}, {"measurement": "Number of rats suffering from carcinoma belonging to class 2", "setting": "[3]; [8]", "value": 2}, {"measurement": "Number of rats suffering from carcinoma belonging to class 3", "setting": "[3]; [8]", "value": 1}, {"measurement": "Number of rats suffering from carcinoma belonging to class 4", "setting": "[3]; [8]", "value": 2}, {"measurement": "anti-tumor activity in the peritoneal carcinoma model", "setting": "[3]; rat, in vivo", "value": "remarkable anti-tumor activity"}, {"measurement": "Effect of product on ascite volume, p (Variance analysis)", "setting": "[3]; versus NaCl", "value": "p < 0.05"}, {"measurement": "Effect of product on carcinoma classification, p (Kruskall-Wallis test)", "setting": "[3]; versus NaCl", "value": "p < 0.05"}, {"measurement": "extension of rat survival rate, p (log rank test)", "setting": "[3]; versus control", "value": "< 0.001"}, {"measurement": "anti-UreB antibodies in serum", "setting": "UreB 1-569", "value": "No anti-UreB antibodies are detected"}, {"measurement": "adjuvant effect on titer of antibodies specifically raised against ovalbumin", "setting": "ovalbumin", "value": "significantly increase"}]}
{"smiles": "CCCCCCCCCCCC(=O)O[C@H](CCCCCCCCCCC)CC(=O)NC(CCOP(=O)(O)O)C(=O)NCCCC(CO)NC(=O)C[C@H](O)CCCCCCCCCCC", "note": "(stereo partly drawn) [OM-294-MP, 3-[(R)-3-dodecanoyloxytetradecanoylamino]-4-oxo-5-aza-9-[(R)-3-hydroxytetradecanoylamino]-decane-1,10-diol 1-dihydrogenphosphate]", "values": [{"measurement": "LAL activity in LPS equivalents", "setting": "[1]", "value": 1.4, "unit": "ng eq. LPS/mg"}, {"measurement": "LAL activity in EU/mg", "setting": "[1]", "value": "13 ± 2", "unit": "EU/mg"}, {"measurement": "IL-4 concentration", "setting": "gp63 antigen [4]; gp63 in vitro 0", "value": "<8", "unit": "pg/mL"}, {"measurement": "γ IFN concentration", "setting": "gp63 antigen [4]; gp63 in vitro 0", "value": "<9", "unit": "pg/mL"}, {"measurement": "IL-4 concentration", "setting": "gp63 antigen [4]; gp63 in vitro 0.3", "value": 125, "unit": "pg/mL"}, {"measurement": "γ IFN concentration", "setting": "gp63 antigen [4]; gp63 in vitro 0.3", "value": 135, "unit": "pg/mL"}, {"measurement": "IL-4 concentration", "setting": "gp63 antigen [4]; gp63 in vitro 0.6", "value": 83, "unit": "pg/mL"}, {"measurement": "γ IFN concentration", "setting": "gp63 antigen [4]; gp63 in vitro 0.6", "value": 120, "unit": "pg/mL"}, {"measurement": "murine T lymphocyte proliferation, 3H-TdR take-up", "setting": "gp63 antigen [5]; gp63 in vitro 0 μg/ml", "value": "2.8 ± 0.7", "unit": "cpm × 10^−3/ml"}, {"measurement": "murine T lymphocyte proliferation, 3H-TdR take-up", "setting": "gp63 antigen [5]; gp63 in vitro 0.16 μg/ml", "value": "65 ± 11", "unit": "cpm × 10^−3/ml"}, {"measurement": "murine T lymphocyte proliferation, 3H-TdR take-up", "setting": "gp63 antigen [5]; gp63 in vitro 0.31 μg/ml", "value": "92 ± 11", "unit": "cpm × 10^−3/ml"}, {"measurement": "murine T lymphocyte proliferation, 3H-TdR take-up", "setting": "gp63 antigen [5]; gp63 in vitro 0.62 μg/ml", "value": "93 ± 13", "unit": "cpm × 10^−3/ml"}, {"measurement": "murine T lymphocyte proliferation, 3H-TdR take-up", "setting": "gp63 antigen [5]; gp63 in vitro 1.25 μg/ml", "value": "39 ± 7", "unit": "cpm × 10^−3/ml"}, {"measurement": "CD40 expression, % of mean fluorescence based on LPS-induced expression", "setting": "[6]; FIG. 6", "value": 39, "unit": "%"}, {"measurement": "CD86 expression, % of mean fluorescence based on LPS-induced expression", "setting": "[6]; FIG. 7", "value": 77, "unit": "%"}, {"measurement": "CD83 expression, % of mean fluorescence based on LPS-induced expression", "setting": "[6]; FIG. 8", "value": 60, "unit": "%"}, {"measurement": "CD80 expression, % of mean fluorescence based on LPS-induced expression", "setting": "[6]; FIG. 9", "value": 62, "unit": "%"}, {"measurement": "Immunoglobulins specifically raised against ovalbumin of IgG1 subclass", "setting": "ovalbumin; Day 14", "value": "19 ± 8", "unit": "Arbitrary units/ml"}, {"measurement": "Immunoglobulins specifically raised against ovalbumin of IgG2a subclass", "setting": "ovalbumin; Day 14", "value": "11253 ± 12169", "unit": "Arbitrary units/ml"}, {"measurement": "Immunoglobulins specifically raised against ovalbumin of IgM subclass", "setting": "ovalbumin; Day 14", "value": "19742 ± 5667", "unit": "Arbitrary units/ml"}, {"measurement": "Immunoglobulins specifically raised against ovalbumin of IgG1 subclass", "setting": "ovalbumin; Day 28", "value": "40 ± 69", "unit": "Arbitrary units/ml"}, {"measurement": "Immunoglobulins specifically raised against ovalbumin of IgG2a subclass", "setting": "ovalbumin; Day 28", "value": "4192 ± 2104", "unit": "Arbitrary units/ml"}, {"measurement": "Immunoglobulins specifically raised against ovalbumin of IgM subclass", "setting": "ovalbumin; Day 28", "value": "9827 ± 2021", "unit": "Arbitrary units/ml"}, {"measurement": "adjuvant effect on titer of antibodies specifically raised against ovalbumin", "setting": "ovalbumin", "value": "significantly increase"}]}
